Test results: patent US12540164B2, “Peptides for treatment and prevention of nonalcoholic fatty liver disease and fibrosis” (UNIVERSITE DE STRASBOURG, priority 2017, dated 2026)
“Also recorded” adds a separate entry of the source. Ends that are not written are not given here.

What was measured:
[1] = system: fibrotic depots in the liver; test: Transmitted electron microscopy of liver sections for fibrotic depots; format: in vivo; details: DIO-NASH mice, 3 months after injection in subcutaneous adipose tissue
Description: For the electron microscopy imaging on the liver extracts, the samples were immersed in glutaraldehyde (2.5%) and paraformaldehyde (2.5%) in cacodylate buffer (0.1 M, pH 7.4). The samples were post-fixed in 1% osmium tetroxide, dehydrated through graded alcohol (50, 70, 90, and 100%) and propylene oxide for 30 minutes each, and embedded in Epon 812. Semithin sections were cut at 2 μm on an ultra microtome (Leica Ultracut UCT) and ultrathin sections were cut at 70 nm and contrasted with uranyl acetate and lead citrate and examined at 70 kv with a Morgagni 268D electron microscope. Images were captured digitally by Mega View III camera (Soft Imaging System).

[2] = system: Collagen IV; test: Immunostaining of kidney cryosections for Collagen IV; format: in vivo; details: DIO(-NASH) mice 3 months post treatment; vs vehicle
Description: Cryosections of kidneys from DIO vehicle treated and DIO ADPIF treated mice 3 months post treatment, were immunostained for collage IV deposition and tight junction with a ZO-1 antibody to assess the effect of ADPIF peptide on fibrosis progression in other soft tissues. For immunofluorescence experiments, liver and kidneys freshly sampled were included in Optimal Cutting Temperature Compound™ (OCT™, Catalog #4583, Tissue-Tek® OCT™, Sakura® Finetek, Torrance, California, USA) and cryosections of 7 μm were cut with Cryostat Leica CM1950. Cryosections were washed with 1×PBS and fixated in 4% formaldehyde solution for 15 min (Catalog #: F555-4L, Sigma-Aldrich, Saint-Louis, Missouri, USA) and then permeabilized with 0.02% SDS-PBS for 30 seconds. Blocking solution was 5%-Bovine Serum Albumin (BSA) in PBS. Primary antibodies were diluted in blocking solution and incubated overnight and indicated secondary antibodies were diluted in PBS for 30 minutes. Nuclei were counterstained with Hoechst (Catalog #: D1306, Invitrogen, Carlsbad, California, USA). Slides were then mounted with Vectashield® Mounting Medium (Catalog #: H-1000, Vector Laboratories, Burlingame, California, USA). Images were acquired and analyzed with Zeiss Imager.Z2 microscope equipped with either Zeiss AxioVision or Zeiss ZEN 2012 software (Carl Zeiss Inc., Oberkochen, Germany). […]

[3] = STAM model of non-alcoholic steatohepatitis: body weight, viability and general condition; format: in vivo; details: STAM NASH mice, any day during the treatment period
Description: (§1) NASH was induced in 12 male mice by a single subcutaneous injection of 200 μg streptozotocin (STZ, Sigma-Aldrich, USA) solution 2 days after birth and feeding with high fat diet (HFD, 57 kcal % fat, Cat #HFD32, CLEA Japan, Inc., Japan) after 4 weeks of age.
(§2) The peptide was administered at a dose of 25 microgram (μg) per mouse once weekly.
(§3) Six NASH mice were subcutaneously in the adipose tissue administered vehicle supplemented with ADPIF peptide at a dose of […] per mouse once weekly from 4 to 9 weeks of age.
The viability, clinical signs and behavior were monitored daily. Body weight was recorded before the treatment. […] The animals were sacrificed at 9 weeks of age by exsanguination through direct cardiac puncture under isoflurane anesthesia (Pfizer Inc.).

[4] = system: ALT (alanine aminotransferase); test: Plasma ALT ELISA; format: in vivo, mice; details: 3 months after a single subcutaneous peptide injection, n=4
Description: (§4) Mice presented were euthanized and their plasma and organs were sampled for analysis. […] Cryosection of the livers were then stained with Adipored and DAPI to detect the level of lipid droplets. […] Hepatic function is assessed by two liver related strong biomarkers namely (AST (Aspartate Aminotransferase) and ALT (Alanine Aminotransferase)), whose levels increase proportionately with liver damage.
(§5) Plasma samples from the indicated mice were used to determine plasma content of either AST (aspartate aminotransferase) or […] (alanine aminotransferase) both robust indicators of liver damage were measured using commercially purchased ELISA kits. These parameters were determined according to manufacturer's procedure. • SEB214Mu (96 Tests): Enzyme-linked Immunosorbent Assay Kit For Aspartate Aminotransferase (AST), Cloud Clone Corp. • SEA207Mu (96 Tests): Enzyme-linked Immunosorbent Assay Kit For Alanine Aminotransferase (ALT), Cloud Clone Corp.

[5] = Glucose tolerance test (GTT) in diet induced obese mice; format: in vivo; details: fasting male DIO mice, single injection at day 0; subcutaneous glucose bolus; AUC D-5 vs D+6
Description: These are results obtained from series of glucose tolerance test (GTT) and data from two-time points namely 30 minutes and 120 minutes were used to generate these curves for both control and PATAD treated diet induced obese (DIO) and diabetic wild type male C57/B6 mice (control).
For this study, mice were on a C57/BL6 genetic background. All animals were housed in a temperature and humidity controlled facility, with a 12 h-light/12 h-dark cycle fed during the whole phase mice will be fed with a 60% high fat diet from Research Diets (D12492), and tap water will be provided ad libitum. Mice were fed and tested regularly for glucose tolerance test for their glucose tolerance and once they were glucose intolerant they were used for treatment.

[6] = system: hepatic lipid droplets; test: AdipoRed staining of liver sections (lipid droplets); format: in vivo; details: 3 months after one unique injection in adipose tissue; DIO male mice; AdipoRed/DAPI cryosections
Description: as §4
Livers were isolated and briefly washed in PBS buffer (pH 7.4). after weighing the dried liver, for the liver to body weight ratio, a sliced sample of the liver were then placed in 4% paraformaldehyde (in 0.1M sodium phosphate buffer, pH 7.2) for 15 min, washed in PBS and incubated in AdipoRed dye (1/25; Lonza, Switzerland) with 30 μM DAPI (Sigma-Aldrich, USA) for 15 minutes. After 3 washes with PBS samples were mounted on slides and pictures were taken using Zeiss microscope.

[7] = STAM model of non-alcoholic steatohepatitis: liver triglyceride content; format: in vivo; details: STAM NASH mice
Description: as §1
The peptide was administered subcutaneously in the adipose tissue in a volume of […] per mouse.
as §2
Liver total lipid-extracts were obtained by Folch's method (Folch J. et al., J. Biol. Chem. 1957; 226: 497). Liver samples were homogenized in chloroform-methanol (2:1, v/v) and incubated overnight at room temperature. After washing with chloroform-methanol-water (8:4:3, v/v/v), the extracts were evaporated to dryness, and dissolved in isopropanol. Liver triglyceride content was measured by Triglyceride E-test (Wako Pure Chemical Industries, Ltd., Japan).
as §3

[8] = system: AST (aspartate aminotransferase); test: Plasma AST ELISA; format: in vivo, mice; details: 3 months after a single subcutaneous peptide injection, n=4
Description: as §4, §5

VECTTREKEVLASLDKAAFLTQLHS (not fully specified (bridges)) [ADPIF, R and S carry the stapling, preferably 2-(7-octenyl)arginine and 2-(4-pentenyl)serine]
fibrotic depots / lesions in liver by transmitted electron microscopy [1]: no longer detected; also recorded: No such fibrotic depots were found
Collagen IV depots in the kidney (immunostaining) [2]: clear reduction; also recorded: More depots of Collagen IV are observed in the DIO-NASH vehicle than in the ADPIF treated
mean body weight compared with the Vehicle group [3]: no significant differences
circulating levels of ALT [4]: dramatic decrease; also recorded: more active in reducing circulating levels of ALT
glucose tolerance test / prevention of hyperglycemia [5]: better effect in glucose tolerance test than the PATAD peptide; also recorded: more active than PATAD peptide in preventing hyperglycemia
size of the hepatic lipid droplets [6]: clearly showed a decrease; also recorded: global decrease in the sizes of the lipid droplets; also recorded: decrease in the diameter of the lipid droplets
Liver triglyceride (mean ± SD) ([7]; 25 μg per mouse SC once weekly 4-9 wks of age, sacrifice 9 wks, n = 6): 35.1 ± 17.8 mg/g liver
liver triglyceride content compared with the Vehicle group ([7]; 25 μg per mouse SC once weekly 4-9 wks, Student's t-test): significant decrease
circulating levels of AST [8]: dramatic decrease; also recorded: effective in reducing
